For test [1], the system named is A/Yokohama/40/2016 (wild-type). The test is described as follows: microbe, parasite or virus in culture. The settings on record: Influenza A virus.
Test [2] relates to A/Sakai/23/2013 (wild-type). The test is described as follows: microbe, parasite or virus in culture. The settings on record: Influenza A virus.
The test system of test [3] is A/Yokohama/59/2016 (wild-type). The test is described as follows: microbe, parasite or virus in culture. The settings on record: Influenza A virus.
Test [4] deals with A/Yokohama/59/2016 (wild-type). Nature of the test: microbe, parasite or virus in culture. The settings on record: Influenza A virus, AX4.
In test [5] the test system is A/Yokohama/40/2016 (wild-type). Nature of the test: microbe, parasite or virus in culture. The settings on record: Influenza A virus, AX4.
For test [6], the system named is A/Sakai/23/2013 (wild-type). Nature of the test: microbe, parasite or virus in culture. The settings on record: Influenza A virus, AX4.
Test [7] has as its target neuraminidase of A/Yokohama/59/2016 (wild-type) (Influenza A virus, UniProt A0A0X9QTS2).
Test [8] has as its target neuraminidase of A/Sakai/23/2013 (wild-type) (Influenza A virus, UniProt W8DXJ8).
In test [9] the target is neuraminidase of A/Yokohama/40/2016 (wild-type) (Influenza A virus, UniProt A0A0X9QTS2).

For orientation: IC50 means the concentration at which inhibition is half-maximal. Lower therefore signals higher potency. What is called EC50 is the concentration at which the effect is half-maximal. The low end stands for higher potency in that assay, the high end for lower potency in that assay.

Regarding `O=C1c2c(O)c(=O)ccn2N([C@@H]2c3ccccc3SCc3c2ccc(F)c3F)[C@@H]2COCCN12` [Baloxavir, Baloxavir acid], the IC50 in test [1] is 6.16 nM; in test [2], 4.05 nM; in [3] it was 11 nM.

Take `NC(=O)c1nc(F)c[nH]c1=O` [Favipiravir, favipiravir]: the EC50 in test [4] was determined as 8810 nM; in test [5], 10000 nM; in [6], 6640 nM.

In the case of `CCC(CC)[C@H](NC(C)=O)[C@@H]1[C@H](O)[C@@H](C(=O)O)C[C@H]1N=C(N)N.O.O.O` [Peramivir, peramivir trihydrate], the IC50 was found to be 0.08 nM in [7], 0.01 nM in test [8] and 0.07 nM in test [9].
